Results: paper PMC12017579, “Phase separation of the PRPP amidotransferase into dynamic condensates promotes de novo purine synthesis in yeast” (PLOS Biology, 2025)
Where a chain is given by its changes, count along the chain named.

Experiments:
Assay in all cases: in vitro condensation assay, fluorescence microscopy of Ade4-mNG particles
Assay type in all cases: binding
[1] = target: T1, Ade4-mNG (yeast PPAT Ade4) (Saccharomyces cerevisiae, UniProt P04046); details: inhibits self-assembly, 0.2 µM protein, 10% PEG8K
T1 construct: full length, C-terminal mNeonGreen and Strep-tag II kept; purified from budding yeast cells
T1 sequence (P04046 2-510): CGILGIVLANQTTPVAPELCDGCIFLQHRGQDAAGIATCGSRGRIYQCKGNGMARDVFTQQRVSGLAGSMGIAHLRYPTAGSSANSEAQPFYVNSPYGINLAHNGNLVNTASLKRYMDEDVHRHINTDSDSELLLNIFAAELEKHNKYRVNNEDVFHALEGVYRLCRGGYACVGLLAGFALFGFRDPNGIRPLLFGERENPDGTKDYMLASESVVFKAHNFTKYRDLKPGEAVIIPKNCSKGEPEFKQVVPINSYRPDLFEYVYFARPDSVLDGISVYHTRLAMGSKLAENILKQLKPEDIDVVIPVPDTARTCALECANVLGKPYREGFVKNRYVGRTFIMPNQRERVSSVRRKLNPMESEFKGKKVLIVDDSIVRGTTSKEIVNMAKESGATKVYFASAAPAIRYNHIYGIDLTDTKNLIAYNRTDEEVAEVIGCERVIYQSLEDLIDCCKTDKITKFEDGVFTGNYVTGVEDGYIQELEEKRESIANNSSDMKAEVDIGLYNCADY

Ade4∆IDR-mNG = target: T2, Ade4∆IDR-mNG (Saccharomyces cerevisiae, UniProt P04046); details: inhibits self-assembly; 500 µM AMP, 0.2 µM protein, 10% PEG8K
T2 construct: C-terminal mNeonGreen and Strep-tag II kept; purified from budding yeast
T2 sequence (P04046 2-480 limits assumed): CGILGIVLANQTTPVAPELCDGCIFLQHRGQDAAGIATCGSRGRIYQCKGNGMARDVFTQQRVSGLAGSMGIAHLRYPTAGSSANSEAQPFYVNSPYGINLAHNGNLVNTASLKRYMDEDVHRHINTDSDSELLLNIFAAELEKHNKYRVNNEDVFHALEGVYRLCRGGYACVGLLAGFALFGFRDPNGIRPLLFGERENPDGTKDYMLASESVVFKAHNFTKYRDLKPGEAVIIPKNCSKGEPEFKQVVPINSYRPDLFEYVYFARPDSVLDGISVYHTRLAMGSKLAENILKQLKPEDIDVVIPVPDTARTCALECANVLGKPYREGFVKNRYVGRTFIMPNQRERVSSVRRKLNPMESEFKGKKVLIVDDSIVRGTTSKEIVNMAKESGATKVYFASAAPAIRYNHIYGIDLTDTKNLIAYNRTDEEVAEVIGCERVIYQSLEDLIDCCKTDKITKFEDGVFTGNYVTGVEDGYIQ

[2] = target: T3, Ade4-mNG (yeast PPAT Ade4) (Saccharomyces cerevisiae, UniProt P04046, D373A/D374A); details: inhibits self-assembly, less than wild type; 1 mM AMP, 0.2 µM protein, 10% PEG8K
T3 construct: full length, C-terminal mNeonGreen and Strep-tag II kept; purified from budding yeast cells
T3 sequence (P04046 2-510 D373A/D374A): T1 sequence (P04046 2-510) with D372A, D373A

## Nc1ncnc2c1ncn2[C@@H]1O[C@H](COP(=O)(O)OP(=O)(O)O)[C@@H](O)[C@H]1O [ADP]
[1]; 5 mM MgCl2, pH 7.5
  in vitro condensation assay, fluorescence microscopy of Ade4-mNG particles: In the presence of GMP, AMP, ADP, and ATP, the condensation of Ade4-mNG was significantly reduced

## Nc1ncnc2c1ncn2[C@@H]1O[C@H](COP(=O)(O)O)[C@@H](O)[C@H]1O [AMP]
[1]; 5 mM MgCl2, pH 7.5, counteracted by PRPP
  in vitro condensation assay, fluorescence microscopy of Ade4-mNG particles: In the presence of GMP, AMP, ADP, and ATP, the condensation of Ade4-mNG was significantly reduced
Ade4∆IDR-mNG
  in vitro condensation assay, fluorescence microscopy of Ade4-mNG particles: AMP also suppressed the condensation of Ade4∆IDR-mNG
[2]
  in vitro condensation assay, fluorescence microscopy of Ade4-mNG particles: AMP inhibited the assembly of Ade4-DA-mNG condensates, albeit less effectively than that of Ade4-mNG condensates

## Nc1ncnc2c1ncn2[C@@H]1O[C@H](COP(=O)(O)OP(=O)(O)OP(=O)(O)O)[C@@H](O)[C@H]1O [ATP]
[1]; 5 mM MgCl2, pH 7.5
  in vitro condensation assay, fluorescence microscopy of Ade4-mNG particles: In the presence of GMP, AMP, ADP, and ATP, the condensation of Ade4-mNG was significantly reduced

## Nc1nc2c(ncn2[C@@H]2O[C@H](COP(=O)(O)O)[C@@H](O)[C@H]2O)c(=O)[nH]1 [GMP]
[1]; 5 mM MgCl2, pH 7.5
  in vitro condensation assay, fluorescence microscopy of Ade4-mNG particles: In the presence of GMP, AMP, ADP, and ATP, the condensation of Ade4-mNG was significantly reduced

## Nc1ncnc2c1ncn2[C@@H]1O[C@H](CSCC[C@H](N)C(=O)O)[C@@H](O)[C@H]1O [SAH]
[1]; weaker than AMP, 500 µM SAH, 0.5% DMSO
  in vitro condensation assay, fluorescence microscopy of Ade4-mNG particles: exerted approximately one-third the inhibitory effect of AMP
